Results published in patent US7074789B2, “Kinase inhibitors” (Amgen Inc., priority 1999, dated 2006).

Legend:
Assay type in all cases: biochemical
Lck = target: T1, Lck (Homo sapiens, UniProt P06239); test: Kinase inhibition assay (33P transfer), Lck; settings: Table 3; read-out: Lck-1
T1 construct: Kinases are expressed as either kinase domains or full length constructs; made in house
Summary of the method: (§1)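 Filterless plate radiometric format: immobilized poly(Glu,Tyr) 4:1 or poly(Arg,Ser) 3:1, 33P-labelled ATP, tagged recombinant kinase (some with regulatory partners). Incorporated label counted after phosphoric acid wash.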

Lyn = target: T2, Lyn (Homo sapiens, UniProt P07948); test: Kinase inhibition assay (33P transfer), Lyn; settings: Table 6, Lyn-1 kinase inhibition class
T2 construct: Kinases are expressed as either kinase domains or full length constructs; made in house
Text: (§2) The inhibitor compounds described herein are screened in the following manner. Kinases suitable for use in the following protocol to determine kinase activity of the compounds described herein include, -but are not limited to: Lck, Lyn, Src, Fyn, Syk, Zap-70, Itk, Tec, Btk, EGFR, ErbB2, Kdr, Flt-1, Flt-3, Tek, c-Met, InsR, and AKT.
(§3) Kinases are expressed as either kinase domains or full length constructs fused to glutathione S-transferase (GST) or polyHistidine tagged fusion proteins in either E. colior Baculovirus-High Five expression systems. They are purified to near homogeneity by affinity chromatography essentially as previously described (Lehr et al., 1996; Gish et al., 1995). In some instances, kinases are co-expressed or mixed with purified or partially purified regulatory polypeptides prior to measurement of activity.
(§4) Kinase activity and inhibition are measured essentially by established protocols (Braunwalder et al., 1996). Briefly, The transfer of ^33PO4 from ATP to the synthetic substrates poly(Glu, Tyr) 4:1 or poly(Arg, Ser) 3:1 attached to the bioactive surface of microtiter plates serves as the basis to evaluate enzyme activity. After an incubation period, the amount of phosphate transferred is measured by first washing the plate with 0.5% phosphoric acid, adding liquid scintillant, and then counting in a liquid scintillation detector. The IC50 is determined by the concentration of compound that causes a 50% reduction in the amount of […] incorporated onto the substrate bound to the plate.

Src = target: T3, Src (Homo sapiens, UniProt P12931); test: Kinase inhibition assay (33P transfer), Src; settings: Table 6, Src-1 kinase inhibition class
T3 construct: Kinases are expressed as either kinase domains or full length constructs; made in house
Text: as §2, §3, §4

Fyn = target: T4, Fyn (Homo sapiens, UniProt P06241); test: Kinase inhibition assay (33P transfer), Fyn; settings: read-out: Fyn-1
T4 construct: Kinases are expressed as either kinase domains or full length constructs; made in house
Text: as §2, §3, §4

Zap-70 = target: T5, Zap-70 (Homo sapiens, UniProt P43403); test: Kinase inhibition assay (33P transfer), Zap-70; settings: Table 3; read-out: Zap-1
T5 construct: Kinases are expressed as either kinase domains or full length constructs; made in house
T5 sequence (P43403 1-619): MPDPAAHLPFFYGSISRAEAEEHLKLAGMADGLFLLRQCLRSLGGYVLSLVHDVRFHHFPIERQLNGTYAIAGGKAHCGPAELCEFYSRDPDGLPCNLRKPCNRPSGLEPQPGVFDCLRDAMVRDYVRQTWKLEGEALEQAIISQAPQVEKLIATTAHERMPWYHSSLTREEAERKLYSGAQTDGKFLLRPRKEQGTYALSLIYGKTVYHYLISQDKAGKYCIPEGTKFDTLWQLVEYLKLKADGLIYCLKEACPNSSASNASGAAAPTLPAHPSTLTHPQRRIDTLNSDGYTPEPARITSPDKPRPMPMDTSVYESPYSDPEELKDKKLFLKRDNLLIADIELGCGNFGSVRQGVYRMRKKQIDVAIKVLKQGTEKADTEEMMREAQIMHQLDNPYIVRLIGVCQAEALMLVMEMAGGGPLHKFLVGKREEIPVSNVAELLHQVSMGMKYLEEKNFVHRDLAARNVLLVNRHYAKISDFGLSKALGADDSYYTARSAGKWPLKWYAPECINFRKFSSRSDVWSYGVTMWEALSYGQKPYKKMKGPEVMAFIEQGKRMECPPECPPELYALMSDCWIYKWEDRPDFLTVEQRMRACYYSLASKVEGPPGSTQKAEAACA
Summary of the method: as §1

Itk = target: T6, Itk (Homo sapiens, UniProt Q08881); test: Kinase inhibition assay (33P transfer), Itk; settings: Table 3; read-out: Itk-1
T6 construct: Kinases are expressed as either kinase domains or full length constructs; made in house
T6 sequence (Q08881 1-620): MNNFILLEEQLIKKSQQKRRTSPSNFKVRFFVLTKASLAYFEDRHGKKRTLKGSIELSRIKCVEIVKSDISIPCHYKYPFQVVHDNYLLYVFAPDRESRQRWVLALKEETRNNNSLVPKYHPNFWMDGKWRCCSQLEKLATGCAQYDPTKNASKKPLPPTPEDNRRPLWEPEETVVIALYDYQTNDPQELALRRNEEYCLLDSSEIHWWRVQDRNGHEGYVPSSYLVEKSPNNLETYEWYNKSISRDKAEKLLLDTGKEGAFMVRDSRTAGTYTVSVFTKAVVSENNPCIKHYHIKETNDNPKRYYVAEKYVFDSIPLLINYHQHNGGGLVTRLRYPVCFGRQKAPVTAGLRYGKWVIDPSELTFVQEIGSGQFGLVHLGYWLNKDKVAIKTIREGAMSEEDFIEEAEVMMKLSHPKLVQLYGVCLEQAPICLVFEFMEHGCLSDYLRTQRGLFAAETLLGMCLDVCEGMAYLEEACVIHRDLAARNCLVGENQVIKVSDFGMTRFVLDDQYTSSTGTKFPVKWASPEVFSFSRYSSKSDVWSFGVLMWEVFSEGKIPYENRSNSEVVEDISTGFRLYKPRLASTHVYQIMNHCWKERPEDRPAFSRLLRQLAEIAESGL
Summary of the method: (§5)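 Radiometric format: recombinant tagged kinase (catalytic domain or whole protein, sometimes combined with regulatory polypeptides) phosphorylates immobilised poly(Glu,Tyr) 4:1 or poly(Arg,Ser) 3:1 using [33P]ATP. Wells are washed in 0.5% phosphoric acid, then counted. IC50 is taken where substrate labelling falls by half.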

EGFR = target: T7, EGFR (Homo sapiens, UniProt P00533); test: Kinase inhibition assay (33P transfer), EGFR; settings: Table 2, kinase inhibition class; read-out: EGFR-1
T7 construct: Kinases are expressed as either kinase domains or full length constructs; made in house
Summary of the method: as §5

Kdr = target: T8, Kdr (Homo sapiens, UniProt P35968); test: Kinase inhibition assay (33P transfer), Kdr; settings: Table 3; read-out: KDR-1
T8 construct: Kinases are expressed as either kinase domains or full length constructs; made in house
Summary of the method: as §1

Flt-1 = target: T9, Flt-1 (Homo sapiens, UniProt P17948); test: Kinase inhibition assay (33P transfer), Flt-1
T9 construct: Kinases are expressed as either kinase domains or full length constructs; made in house
Text: as §2, §3, §4

Tek = target: T10, Tek (Homo sapiens, UniProt Q02763); test: Kinase inhibition assay (33P transfer), Tek; settings: read-out: Tek-1
T10 construct: Kinases are expressed as either kinase domains or full length constructs; made in house
Summary of the method: as §5

c-Met = target: T11, c-Met (Homo sapiens, UniProt P08581); test: Kinase inhibition assay (33P transfer), c-Met; settings: Table 2, kinase inhibition class; read-out: Met-1
T11 construct: Kinases are expressed as either kinase domains or full length constructs; made in house
Summary of the method: as §5

AKT = target: T12, AKT (Homo sapiens, UniProt Q9Y243); test: Kinase inhibition assay (33P transfer), AKT; settings: Table 2, kinase inhibition class; read-out: AKT3-1
T12 construct: Kinases are expressed as either kinase domains or full length constructs; made in house
Summary of the method: as §1

PDGFRB = target: T13, PDGFRB (Homo sapiens, UniProt P09619); test: Kinase inhibition assay (33P transfer), PDGFRB; settings: read-out: PDGFRB-1
T13 construct: Kinases are expressed as either kinase domains or full length constructs; made in house

Hck-1 = target: T14, Hck-1 (Homo sapiens, UniProt P08631); test: Kinase inhibition assay (33P transfer), Hck; settings: Table 6, Hck-1 kinase inhibition class
T14 construct: Kinases are expressed as either kinase domains or full length constructs; made in house

ErbB4 = target: T15, ErbB4 (Homo sapiens, UniProt Q15303); test: Kinase inhibition assay (33P transfer), ErbB4; settings: read-out: ErbB4-1
T15 construct: Kinases are expressed as either kinase domains or full length constructs; made in house

FGFR1 = target: T16, FGFR1 (Homo sapiens, UniProt P11362); test: Kinase inhibition assay (33P transfer), FGFR1; settings: read-out: FGFR1-1
T16 construct: Kinases are expressed as either kinase domains or full length constructs; made in house
T16 sequence (P11362 22-822, species assumed): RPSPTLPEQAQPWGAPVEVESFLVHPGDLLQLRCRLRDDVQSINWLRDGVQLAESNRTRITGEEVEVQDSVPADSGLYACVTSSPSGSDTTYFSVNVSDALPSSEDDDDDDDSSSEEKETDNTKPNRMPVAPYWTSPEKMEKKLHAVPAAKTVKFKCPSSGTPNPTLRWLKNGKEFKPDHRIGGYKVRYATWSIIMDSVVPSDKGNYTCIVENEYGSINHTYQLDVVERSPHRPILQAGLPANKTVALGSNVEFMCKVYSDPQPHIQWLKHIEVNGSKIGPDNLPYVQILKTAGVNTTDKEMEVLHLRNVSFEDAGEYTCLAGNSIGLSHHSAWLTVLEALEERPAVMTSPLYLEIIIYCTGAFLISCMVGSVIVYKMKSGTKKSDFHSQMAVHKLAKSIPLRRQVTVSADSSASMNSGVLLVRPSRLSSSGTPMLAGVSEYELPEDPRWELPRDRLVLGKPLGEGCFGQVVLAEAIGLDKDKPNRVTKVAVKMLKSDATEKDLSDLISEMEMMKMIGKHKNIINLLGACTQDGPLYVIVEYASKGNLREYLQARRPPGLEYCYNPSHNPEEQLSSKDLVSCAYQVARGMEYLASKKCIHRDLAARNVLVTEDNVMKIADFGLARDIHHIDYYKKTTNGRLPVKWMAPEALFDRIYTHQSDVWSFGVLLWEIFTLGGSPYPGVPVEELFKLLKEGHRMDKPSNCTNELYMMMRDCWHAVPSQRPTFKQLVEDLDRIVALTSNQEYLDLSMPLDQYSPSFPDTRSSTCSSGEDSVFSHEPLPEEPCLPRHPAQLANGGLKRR

T15 sequence (Q15303 26-1308, species assumed): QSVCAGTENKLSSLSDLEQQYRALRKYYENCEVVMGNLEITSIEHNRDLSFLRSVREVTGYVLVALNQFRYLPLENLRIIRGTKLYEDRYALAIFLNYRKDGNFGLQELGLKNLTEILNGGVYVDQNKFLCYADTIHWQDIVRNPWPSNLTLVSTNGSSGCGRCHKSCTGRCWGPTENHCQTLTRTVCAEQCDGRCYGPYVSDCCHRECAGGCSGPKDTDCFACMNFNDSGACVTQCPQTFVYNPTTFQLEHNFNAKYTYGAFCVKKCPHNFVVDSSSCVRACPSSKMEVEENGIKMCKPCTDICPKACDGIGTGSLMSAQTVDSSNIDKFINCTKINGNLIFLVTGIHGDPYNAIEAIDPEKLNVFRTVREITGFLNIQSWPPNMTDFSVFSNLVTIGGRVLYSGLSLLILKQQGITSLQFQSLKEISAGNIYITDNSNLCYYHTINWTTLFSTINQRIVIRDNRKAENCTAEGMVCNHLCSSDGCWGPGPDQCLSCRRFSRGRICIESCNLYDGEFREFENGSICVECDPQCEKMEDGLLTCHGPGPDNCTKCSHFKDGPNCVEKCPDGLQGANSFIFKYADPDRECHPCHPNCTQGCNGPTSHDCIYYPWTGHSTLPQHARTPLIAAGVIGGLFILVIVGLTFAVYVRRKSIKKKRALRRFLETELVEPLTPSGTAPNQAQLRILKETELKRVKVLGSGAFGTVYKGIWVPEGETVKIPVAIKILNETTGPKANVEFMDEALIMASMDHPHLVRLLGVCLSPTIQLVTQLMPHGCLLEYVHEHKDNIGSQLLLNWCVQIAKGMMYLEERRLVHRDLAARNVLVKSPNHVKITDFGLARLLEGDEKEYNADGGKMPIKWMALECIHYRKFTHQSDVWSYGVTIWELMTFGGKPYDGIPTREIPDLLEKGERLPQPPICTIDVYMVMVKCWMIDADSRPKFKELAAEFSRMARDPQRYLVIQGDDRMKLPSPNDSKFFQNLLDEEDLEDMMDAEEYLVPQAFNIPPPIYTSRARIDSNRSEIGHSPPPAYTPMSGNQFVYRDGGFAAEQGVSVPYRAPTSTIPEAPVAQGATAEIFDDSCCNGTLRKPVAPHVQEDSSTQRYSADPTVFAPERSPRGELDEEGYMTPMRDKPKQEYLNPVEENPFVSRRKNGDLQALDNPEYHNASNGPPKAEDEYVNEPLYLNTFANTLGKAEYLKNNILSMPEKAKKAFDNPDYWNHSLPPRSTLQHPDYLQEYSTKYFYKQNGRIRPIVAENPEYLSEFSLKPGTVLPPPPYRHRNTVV
T11 sequence (P08581 25-1390): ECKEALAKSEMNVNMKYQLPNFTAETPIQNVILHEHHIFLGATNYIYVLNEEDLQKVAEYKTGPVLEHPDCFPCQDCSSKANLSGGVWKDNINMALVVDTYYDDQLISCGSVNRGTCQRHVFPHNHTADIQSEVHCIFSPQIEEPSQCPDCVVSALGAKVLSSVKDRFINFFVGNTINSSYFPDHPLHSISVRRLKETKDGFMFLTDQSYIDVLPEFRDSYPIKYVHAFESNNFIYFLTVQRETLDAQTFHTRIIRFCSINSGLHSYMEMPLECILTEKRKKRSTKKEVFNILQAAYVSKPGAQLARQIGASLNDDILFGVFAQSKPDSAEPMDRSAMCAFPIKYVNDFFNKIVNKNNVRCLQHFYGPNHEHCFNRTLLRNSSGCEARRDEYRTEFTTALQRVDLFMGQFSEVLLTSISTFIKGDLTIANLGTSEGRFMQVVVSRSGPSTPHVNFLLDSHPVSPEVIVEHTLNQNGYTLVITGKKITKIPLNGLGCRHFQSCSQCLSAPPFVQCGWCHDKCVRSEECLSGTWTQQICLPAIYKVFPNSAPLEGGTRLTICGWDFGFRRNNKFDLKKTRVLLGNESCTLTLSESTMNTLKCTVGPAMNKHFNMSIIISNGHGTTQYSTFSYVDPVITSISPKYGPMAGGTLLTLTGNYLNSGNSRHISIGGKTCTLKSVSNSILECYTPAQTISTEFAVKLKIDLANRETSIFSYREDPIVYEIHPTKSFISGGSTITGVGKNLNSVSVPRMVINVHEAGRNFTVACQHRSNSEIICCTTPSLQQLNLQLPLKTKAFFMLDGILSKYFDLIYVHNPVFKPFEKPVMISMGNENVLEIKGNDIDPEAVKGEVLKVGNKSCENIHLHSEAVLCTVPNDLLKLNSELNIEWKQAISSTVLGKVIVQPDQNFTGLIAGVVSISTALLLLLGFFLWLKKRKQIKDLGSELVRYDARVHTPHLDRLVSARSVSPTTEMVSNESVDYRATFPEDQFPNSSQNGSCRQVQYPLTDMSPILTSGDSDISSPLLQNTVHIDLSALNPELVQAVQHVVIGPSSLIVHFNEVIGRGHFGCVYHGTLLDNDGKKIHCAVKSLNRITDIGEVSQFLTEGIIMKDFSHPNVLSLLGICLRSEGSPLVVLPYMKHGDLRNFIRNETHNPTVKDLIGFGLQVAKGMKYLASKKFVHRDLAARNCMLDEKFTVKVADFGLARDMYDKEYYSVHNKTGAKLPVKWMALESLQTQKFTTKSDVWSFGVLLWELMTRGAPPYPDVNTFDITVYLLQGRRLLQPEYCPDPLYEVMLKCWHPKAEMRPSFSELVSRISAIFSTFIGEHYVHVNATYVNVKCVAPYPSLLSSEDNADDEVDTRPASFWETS
T10 sequence (Q02763 23-1124, species assumed): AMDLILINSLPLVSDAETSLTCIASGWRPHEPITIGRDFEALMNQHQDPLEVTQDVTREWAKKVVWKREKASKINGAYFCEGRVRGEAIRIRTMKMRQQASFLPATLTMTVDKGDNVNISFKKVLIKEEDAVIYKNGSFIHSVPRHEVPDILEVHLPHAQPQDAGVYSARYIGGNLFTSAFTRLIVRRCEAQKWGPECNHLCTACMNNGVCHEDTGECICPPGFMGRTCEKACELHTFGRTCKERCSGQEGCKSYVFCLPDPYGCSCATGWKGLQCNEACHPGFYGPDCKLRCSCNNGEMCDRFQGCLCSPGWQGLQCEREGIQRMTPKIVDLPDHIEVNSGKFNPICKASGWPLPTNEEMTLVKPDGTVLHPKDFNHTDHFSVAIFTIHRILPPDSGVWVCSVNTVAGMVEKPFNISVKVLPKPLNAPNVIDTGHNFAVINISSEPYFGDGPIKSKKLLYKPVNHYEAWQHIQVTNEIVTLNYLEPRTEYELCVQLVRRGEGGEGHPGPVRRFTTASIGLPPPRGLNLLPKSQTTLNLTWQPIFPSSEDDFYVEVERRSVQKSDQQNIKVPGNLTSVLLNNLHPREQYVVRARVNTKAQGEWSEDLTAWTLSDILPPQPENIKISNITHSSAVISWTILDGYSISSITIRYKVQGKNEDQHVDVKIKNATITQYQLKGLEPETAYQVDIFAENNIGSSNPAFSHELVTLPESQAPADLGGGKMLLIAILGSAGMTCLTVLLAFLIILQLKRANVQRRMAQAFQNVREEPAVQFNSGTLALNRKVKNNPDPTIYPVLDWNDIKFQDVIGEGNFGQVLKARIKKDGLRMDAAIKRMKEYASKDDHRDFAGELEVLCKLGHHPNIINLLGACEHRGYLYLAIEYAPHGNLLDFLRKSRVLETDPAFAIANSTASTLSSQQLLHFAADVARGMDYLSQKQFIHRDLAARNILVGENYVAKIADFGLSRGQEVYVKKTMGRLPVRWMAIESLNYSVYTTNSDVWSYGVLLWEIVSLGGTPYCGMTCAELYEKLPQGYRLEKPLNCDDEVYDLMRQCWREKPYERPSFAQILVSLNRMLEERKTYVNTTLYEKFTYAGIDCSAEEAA
T3 sequence (P12931 whole entry, species assumed, the tested form may be a part): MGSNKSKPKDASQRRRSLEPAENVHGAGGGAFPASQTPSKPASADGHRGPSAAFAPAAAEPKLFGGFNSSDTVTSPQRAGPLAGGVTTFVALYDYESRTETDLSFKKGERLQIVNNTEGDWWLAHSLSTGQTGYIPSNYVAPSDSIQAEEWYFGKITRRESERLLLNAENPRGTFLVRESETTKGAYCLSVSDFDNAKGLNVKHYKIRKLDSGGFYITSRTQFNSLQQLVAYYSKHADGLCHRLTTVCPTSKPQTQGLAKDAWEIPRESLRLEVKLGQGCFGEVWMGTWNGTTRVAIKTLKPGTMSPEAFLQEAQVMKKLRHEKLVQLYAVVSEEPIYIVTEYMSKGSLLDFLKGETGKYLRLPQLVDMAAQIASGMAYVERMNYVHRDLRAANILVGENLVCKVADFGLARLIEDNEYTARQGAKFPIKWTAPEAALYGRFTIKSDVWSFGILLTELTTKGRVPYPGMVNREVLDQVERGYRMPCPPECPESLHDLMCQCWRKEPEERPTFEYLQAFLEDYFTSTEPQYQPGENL

Compound	IC50 (Lck)	IC50 (Lyn)	IC50 (Src)	IC50 (Fyn)	IC50 (Zap-70)	IC50 (Itk)	IC50 (EGFR)	IC50 (Kdr)	IC50 (Flt-1)	IC50 (Tek)	IC50 (c-Met)	IC50 (AKT)	IC50 (PDGFRB)	IC50 (Hck-1)	IC50 (ErbB4)	IC50 (FGFR1)
COc1cc(Nc2ncnc(-n3c(N)nc4ccccc43)n2)cc(OC)c1OCCN1CCOCC1 [Compound 445]	< 812 nM	812 to 4870 nM	0.812 to 4.87 µM	0.812 to 4.87 µM	> 9.14 µM	0.812 to 4.87 µM	> 9.14 µM	< 812 nM	< 812 nM	7.11 to 9.14 µM	0.812 to 4.87 µM	> 9.14 µM	< 812 nM	> 9.14 µM	> 9.14 µM	< 812 nM
CC(=O)NS(=O)(=O)c1ccc(Nc2ncnc(-n3c(N)nc4ccccc43)n2)cc1 [Compound 440]	942 to 5650 nM	5650 to 8250 nM	> 10.6 µM	0.942 to 5.65 µM	0.942 to 5.65 µM	8.25 to 10.6 µM	0.942 to 5.65 µM	942 to 5650 nM	942 to 5650 nM	5.65 to 8.25 µM	0.942 to 5.65 µM	> 10.6 µM	942 to 5650 nM	5.65 to 8.25 µM	0.942 to 5.65 µM	942 to 5650 nM
C=CCNc1cc(-c2ncnc(Nc3cc(OC)c(OC)c(OC)c3)n2)ccn1 [Compound 412]	< 1010 nM	< 1010 nM	> 11.4 µM	> 11.4 µM	> 11.4 µM	> 11.4 µM	> 11.4 µM	1010 to 6080 nM	> 11400 nM	> 11.4 µM	> 11.4 µM	> 11.4 µM	6080 to 8870 nM	> 11.4 µM	> 11.4 µM	> 11400 nM
COc1cc(Nc2ncnc(-n3ccc4cc(O)ccc43)n2)cc(OC)c1OC [Compound 202]	< 1020 nM	< 1020 nM	< 1.02 µM	< 1.02 µM	> 11.4 µM	< 1.02 µM	> 11.4 µM	< 1020 nM	< 1020 nM	6.1 to 8.9 µM	1.02 to 6.1 µM	8.9 to 11.4 µM	< 1020 nM	> 11.4 µM	1.02 to 6.1 µM	< 1020 nM
OCc1cccc(Nc2ncnc(Nc3cc(-c4ccco4)n[nH]3)n2)c1 [Compound 429]	1140 to 6870 nM	< 1140 nM	< 1.14 µM	1.14 to 6.87 µM	> 12.9 µM	1.14 to 6.87 µM	1.14 to 6.87 µM	< 1140 nM	< 1140 nM	10 to 12.9 µM	< 1.14 µM	1.14 to 6.87 µM	< 1140 nM	> 12.9 µM	1.14 to 6.87 µM	< 1140 nM
COc1cc(Nc2ncnc(N[C@H](CO)c3ccccc3)n2)cc(OC)c1OC [Compound 425]	> 11300 nM	< 1010 nM	1.01 to 6.04 µM	8.81 to 11.3 µM	> 11.3 µM	> 11.3 µM	1.01 to 6.04 µM	8810 to 11300 nM	> 11300 nM	> 11.3 µM	> 11.3 µM	> 11.3 µM	1010 to 6040 nM	> 11.3 µM	> 11.3 µM	6040 to 8810 nM
COc1cc(Nc2ncnc(-n3c(Nc4ccc5[nH]ncc5c4)nc4ccccc43)n2)cc(OC)c1OC [Compound 404]	785 to 4710 nM	785 to 4710 nM	4.71 to 6.87 µM	0.785 to 4.71 µM	> 8.83 µM	0.785 to 4.71 µM	6.87 to 8.83 µM	< 785 nM	< 785 nM	> 8.83 µM	> 8.83 µM	6.87 to 8.83 µM	< 785 nM	6.87 to 8.83 µM	> 8.83 µM	< 785 nM
